For 8 compounds, Activity results are on record in ChEMBL document CHEMBL6153121, “Anti-Inflammatory Dimeric and Trimeric Flavonoids from the Roots ofPistacia weinmannifolia” (J Nat Prod, 2025).

Calls of active or inactive are those of the source. No cut-off for these calls is given here.

Data set [1] has as its system NCI-H292. In words: Cytotoxicity against human NCI-H292 cells assessed as redcution in cell viability at 0.25 to 1 uM incubated for 24 hrs in presence of PMA by CCK-8 assay. The conditions noted are these: nci-h292, 24 h, dose 0.25-1 µM. The format is toxicity, cell-based.
The subject of data set [2] is NCI-H292. In words: Antiinflammatory activity against PMA-stimulated human NCI-H292 cells assessed as reduction in IL-8 secretion at 1 uM incubated for 24 hrs by ELISA. The format is functional, cell-based.
Data set [3] relates to NCI-H292. In words: Antiinflammatory activity against PMA-stimulated human NCI-H292 cells assessed as reduction in MUC5AC secretion at 1 uM incubated for 24 hrs by ELISA. Format: functional, cell-based.

With `O=C(/C=C/c1ccc(Oc2ccc([C@H]3Oc4cc(O)ccc4C(=O)[C@@H]3[C@@H]3C(=O)c4ccc(O)cc4O[C@H]3c3ccc(O)c(O)c3)cc2)cc1)c1ccc(O)cc1O`, in data set [1], the Activity result is on record as “Toxic”. Take `O=C(/C=C/c1ccc(Oc2cc(C(=O)/C=C/c3ccc(O)cc3)c(O)cc2O)cc1)c1ccc(O)cc1O`: the Activity result in data set [2] and in data set [3] was “Active; Effectively Inhibited The Secretion” each time.

Turning to `O=C(/C=C/c1ccc(Oc2ccc(/C=C/C(=O)c3ccc(O)cc3O)cc2O)cc1)c1ccc(O)cc1O`, the Activity entry in data set [2] and in data set [3] was “Active; Effectively Inhibited The Secretion” in each case. Consider `O=C(/C=C/c1ccc(O)c(-c2cc(C(=O)/C=C/c3ccc(O)cc3)c(O)cc2O)c1)c1ccc(O)cc1O`, for which the outcome in data set [2] and in data set [3] was Active. For the compound `O=C(/C=C/c1ccc(Oc2ccc([C@@H]3[C@@H](C(=O)c4ccc(O)cc4O)[C@H](C(=O)c4ccc(O)cc4O)[C@H]3c3ccc(O)cc3)cc2O)cc1)c1ccc(O)cc1O`, the Activity entry in data set [2] and in data set [3] was “Active; Effectively Inhibited The Secretion” in each case.

As for `O=C1C[C@@H](c2ccc(O)cc2)Oc2cc(Oc3ccc([C@@H]4[C@@H](C(=O)c5ccc(O)cc5O)[C@H](C(=O)c5ccc(O)cc5O)[C@H]4c4ccc(O)cc4)cc3O)ccc21`, the result in data set [2] and in data set [3] was Active. `O=C(/C=C/c1ccc(O)cc1)c1ccc2c(c1O)[C@H](C(=O)c1ccc(O)cc1O)[C@@H](c1ccc(O)cc1)O2`: the result in data set [2] and in data set [3] was Active. Consider `O=C(/C=C/c1ccc(Oc2c(O)ccc(C(=O)/C=C/c3ccc(O)cc3)c2O)cc1)c1ccc(O)cc1`, for which the outcome in data set [2] was inactive. Moreover, the outcome in data set [3] was Active.
